Assay results reported in patent publication US20120073988A1, “Sensor for Measurement of Hydrogen Sulfide” (priority 2004, published 2012).

Experiments:
[1] = system: enzyme in the blood vessels that is responsible for H2S production (rat aorta homogenate, VSMC, intact tail artery); experiment: Real-time H2S production in rat vascular samples supplied with L-cysteine and PLP; assay type: biochemical; conditions: added after L-cysteine and PLP; FIG. 6
Excerpt: In general, the following biological samples are bathed in the potassium phosphate buffer (PBS) described above. The specific procedures are found in Doeller, J. E., Isbell, T. S., Benavides, G., Koenitzer, J., Patel, H., Patel, P. P., Lancaster, J. R. Jr., Darley-Usmar, V. M., and Kraus, D. W.; Polarographic measurement of hydrogen sulfide production and consumption by mammalian tissues; Anal. Biochem.; (2005) 341: 40-51, the contents of which are incorporated by reference herein.
FIG. 6 illustrates measurement of real-time H2S production in rat aorta homogenate (Aorta homogenate), cultured rat vascular smooth muscle cells (VSMC) and living rat tail artery (Intact Tail Artery). After supplying each of the samples with the amino acid L-cysteine and the vitamin pyridoxal […] (PLP), both substrate and cofactor respectively, for the enzyme in the blood vessels that is responsible for H2S production, a rise in solution H2S concentration is observed.

[2] = H2S→H++HS−; HS−→S2−+H+; cited from earlier work
[3] = system: mitochondria isolated from marine mussel gills; experiment: O2 consumption of a mitochondria suspension isolated from mussel gills in a closed chamber; set-up: species or system ribbed mussel Geukensia demissa; conditions: injections of 12.5 μM sulfide, FIG. 5A
Excerpt: The cellular organelle responsible for O2 consumption in biological cells is the mitochondrion. […] Such rapid kinetic events could not be adequately followed with standard colorimetric methods for H2S determination.
Mitochondria were isolated using the isolation procedure referenced in Parrino, V., D. W. Kraus and J. E. Doeller; ATP production from the oxidation of sulfide in gill mitochondria of the ribbed mussel Geukensia demissa; J. Exp. Biol.; (2000) 203:2209-2218, the contents of which are incorporated by reference herein. The mitochondria were suspended in an aqueous salt- and sucrose-containing buffer described in the Parrino reference.
In FIG. 5A two traces show the real-time concentrations of H2S and O2 in a closed chamber containing a mitochondria suspension isolated from mussel gills. The lower trace is H2S concentration and the upper trace is O2 concentration from a different sensor. […] As the chamber O2 is exhausted the sulfide is consumed much more slowly. In FIG. 5B the derivatives (H2S as lower trace and O2 as upper trace) of the traces in FIG. 5A are shown.

[4] = system: isolated rat aorta; experiment: Vessel tension organ bath with isolated rat aorta segments; conditions: aorta pre-contracted with 100 nM phenylephrine; FIG. 7
Procedure: Individual segments, 4 mm long and 1.5 mm in diameter, are tethered between the bath floor and a sensitive force transducer above the bath in order to measure any vasorelaxation as a decrease in tension. An electrochemical H2S sensor (PHSS) is also immersed in the bath to simultaneously report the H2S concentration. The aorta vessels are first contracted by adding 100 nM phenylephrine, PE, to the bath to stimulate physiological vessel tension. […] Measurement of such an acute response of blood vessels to H2S concentration is only possible with the hydrogen sulfide detection apparatus comprising the PHSS.

## N#CC[C@H](N)C(=O)O [BCA, beta-cyanoalanine]
[1]
  effect on H2S production: limit any further H2S production

## S [H2S, Hydrogen sulfide]
[2]
  pKa: 6.88

## S [HS^−]
[2]
  pKa: 14.15

## [Na+].[Na+].[S-2] [Na2S]
[3]
  effect on O2 consumption: stimulate O2 consumption
[4]
  vessel tension (vasorelaxation): immediate vasorelaxation event
